This is an account of results in ChEMBL document CHEMBL1671658, “VanA-type vancomycin-resistant Staphylococcus aureus” (2009).

For experiment [1], the system named is Staphylococcus aureus. Kind of experiment: Antibacterial activity against VanA-type vancomycin-resistant Staphylococcus aureus isolate 1 harboring vanA operon.
The subject of experiment [2] is Staphylococcus aureus. Nature of the experiment: Antibacterial activity against VanA-type vancomycin-resistant Staphylococcus aureus isolate 2 harboring vanA operon.
The test system of experiment [3] is Staphylococcus aureus. Kind of experiment: Antibacterial activity against VanA-type vancomycin-resistant Staphylococcus aureus isolate 3 harboring vanA operon.
Experiment [4] deals with Staphylococcus aureus. Nature of the experiment: Antibacterial activity against high-level-resistant vancomycin-resistant Staphylococcus aureus harboring Tn1546 element.

In brackets after ≈: the same amount, converted by molar mass. Where only a bound is given, the exact number is not on record here.

Take `CN[C@H](CC(C)C)C(=O)N[C@H]1C(=O)N[C@@H](CC(N)=O)C(=O)N[C@H]2C(=O)N[C@H]3C(=O)N[C@H](C(=O)N[C@H](C(=O)O)c4cc(O)cc(O)c4-c4cc3ccc4O)[C@H](O)c3ccc(c(Cl)c3)Oc3cc2cc(c3O[C@@H]2O[C@H](CO)[C@@H](O)[C@H](O)[C@H]2O[C@H]2C[C@](C)(N)[C@H](O)[C@H](C)O2)Oc2ccc(cc2Cl)[C@H]1O` [VANCOMYCIN]: the MIC in the experiment with Staphylococcus aureus [1] is over 256 µg/mL; against Staphylococcus aureus [2] it was 32 µg/mL (≈ 22.1 µM); in the experiment on Staphylococcus aureus [3] it was 64 µg/mL (≈ 44.2 µM); against Staphylococcus aureus [4], over 256 µg/mL.
